According to PubChem BioAssay AID330 (DTP/NCI, 2004):
“And” between values parts separate entries of the source, which are not always exact repeats. Equal values may be shown once. Inconclusive results and toxic doses are left out. How the source made its calls: active means survival T/C of 150% or more; inactive means T/C below 125% in these data.

Test system: P388 leukemia ip, CD2F1 mice, survival T/C
Assay: NCI In Vivo Anticancer Drug Screen. Data for tumor model P388 Leukemia (intraperitoneal) in CD2F1 (CDF1) mice
Conditions: endpoint: median survival time, higher = longer survival
In short: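 Mice carrying the transplanted tumor received test compound or vehicle. Survival was recorded in each group, and the value is the treated-group measurement divided by that of the vehicle-treated control group.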

[1] = dose: 25.0 mg/kg/injection, schedule: Q01DX005 (ip), vehicle: Klucel (hydroxypropylcellulose) (HPC)
[2] = dose: 50.0 mg/kg/injection, schedule: Q01DX005 (ip), vehicle: Klucel (hydroxypropylcellulose) (HPC)
[3] = dose: 100.0 mg/kg/injection, schedule: Q01DX005 (ip), vehicle: Klucel (hydroxypropylcellulose) (HPC)
[4] = dose: 200.0 mg/kg/injection, schedule: Q01DX005 (ip), vehicle: Klucel (hydroxypropylcellulose) (HPC)
[5] = dose: 50.0 mg/kg/injection, schedule: Q01DX005 (ip), vehicle: saline with Tween-80
[6] = dose: 100.0 mg/kg/injection, schedule: Q01DX005 (ip), vehicle: saline with Tween-80
[7] = dose: 50.0 mg/kg/injection, schedule: Q01DX009 (ip), vehicle: saline
[8] = dose: 100.0 mg/kg/injection, schedule: Q01DX009 (ip), vehicle: saline
[9] = dose: 200.0 mg/kg/injection, schedule: Q01DX009 (ip), vehicle: saline
[10] = dose: 25.0 mg/kg/injection, schedule: Q01DX009 (ip), vehicle: saline with Tween-80
[11] = dose: 50.0 mg/kg/injection, schedule: Q01DX009 (ip), vehicle: saline with Tween-80
[12] = dose: 100.0 mg/kg/injection, schedule: Q01DX009 (ip), vehicle: saline with Tween-80
[13] = dose: 200.0 mg/kg/injection, schedule: Q01DX009 (ip), vehicle: saline with Tween-80
[14] = dose: 12.5 mg/kg/injection, schedule: Q01DX009 (ip), vehicle: saline
[15] = dose: 25.0 mg/kg/injection, schedule: Q01DX009 (ip), vehicle: saline
[16] = dose: 100.0 mg/kg/injection, schedule: Q04DX003 (ip), vehicle: saline with Tween-80
[17] = dose: 12.5 mg/kg/injection, schedule: Q01DX005 (ip), vehicle: saline with Tween-80
[18] = dose: 200.0 mg/kg/injection, schedule: Q01DX005 (ip), vehicle: saline with Tween-80

Measured: T/C

O=C(/C=C/c1ccccc1)NCCC1(O)C(=O)Nc2ccccc21 (stereo unspecified)
inactive: [1] 102 % of control | [2] 100 % of control | [3] 90 % of control | [4] 88 % of control

O=C1OC(c2ccc([N+](=O)[O-])cc2)=N/C1=C\c1ccc(Cl)cc1
inactive: dose: 3.13 mg/kg/injection, schedule: Q01DX009 (ip), vehicle: Klucel (hydroxypropylcellulose) (HPC) 115 % of control | dose: 6.25 mg/kg/injection, schedule: Q01DX009 (ip), vehicle: Klucel (hydroxypropylcellulose) (HPC) 115 % of control | dose: 12.5 mg/kg/injection, schedule: Q01DX009 (ip), vehicle: Klucel (hydroxypropylcellulose) (HPC) 105 % of control and 88 % of control | dose: 25.0 mg/kg/injection, schedule: Q01DX009 (ip), vehicle: Klucel (hydroxypropylcellulose) (HPC) 88 % of control

CCOC(=O)c1sc(=S)n(CC)c1C
inactive: [5] 107 % of control | [6] 99 % of control

C=C1C(=O)C2=CC1CCC(=O)C1(C)CCC(OC(C)=O)C(C)(C)C1CC2O (stereo unspecified)
inactive: dose: 7.5 mg/kg/injection, schedule: Q01DX009 (ip), vehicle: Klucel (hydroxypropylcellulose) (HPC) 105 % of control and 107 % of control | dose: 15.0 mg/kg/injection, schedule: Q01DX009 (ip), vehicle: Klucel (hydroxypropylcellulose) (HPC) 110 % of control and 120 % of control and 123 % of control | dose: 30.0 mg/kg/injection, schedule: Q01DX009 (ip), vehicle: Klucel (hydroxypropylcellulose) (HPC) 102 % of control and 113 % of control and 114 % of control | dose: 60.0 mg/kg/injection, schedule: Q01DX009 (ip), vehicle: Klucel (hydroxypropylcellulose) (HPC) 111 % of control and 124 % of control

CC1=CC(c2c(O)cc(O)c(C(=O)CCc3ccccc3)c2O)C(C(C)C)CC1 (stereo unspecified)
inactive: dose: 3.75 mg/kg/injection, schedule: Q01DX005 (ip), vehicle: Klucel + Tween-80 94 % of control | dose: 7.5 mg/kg/injection, schedule: Q01DX005 (ip), vehicle: Klucel + Tween-80 103 % of control | dose: 15.0 mg/kg/injection, schedule: Q01DX005 (ip), vehicle: Klucel + Tween-80 97 % of control | dose: 30.0 mg/kg/injection, schedule: Q01DX005 (ip), vehicle: Klucel + Tween-80 98 % of control

COCCC(=NC(C)(C)C)Nc1ccccc1Cl
inactive: [7] 114 % of control | [8] 113 % of control | [9] 102 % of control

NC(=S)N1CCCC1
inactive: [10] 95 % of control | [11] 93 % of control | [12] 98 % of control | [13] 89 % of control

CSC(=S)NN=C(c1ccccn1)c1ccccn1
inactive: dose: 6.25 mg/kg/injection, schedule: Q01DX009 (ip), vehicle: saline with Tween-80 96 % of control | dose: 12.5 mg/kg/injection, schedule: Q01DX009 (ip), vehicle: saline with Tween-80 99 % of control | [10] 92 % of control | [12] 91 % of control | [13] 88 % of control

BrC[Si](CBr)(c1ccccc1)c1ccccc1
inactive: [14] 106 % of control | [15] 106 % of control | [7] 99 % of control and 92 % of control

O=C(CNC(=O)OCc1ccccc1)NCC1OC(n2cnc3c(=O)[nH]cnc32)C(O)C1O (stereo unspecified)
inactive: dose: 50.0 mg/kg/injection, schedule: Q04DX003 (ip), vehicle: saline with Tween-80 102 % of control | [16] 94 % of control | dose: 200.0 mg/kg/injection, schedule: Q04DX003 (ip), vehicle: saline with Tween-80 98 % of control

COC1NC(=O)N(C(C)C)C1(C)C (stereo unspecified)
inactive: [14] 101 % of control | [15] 101 % of control | [7] 100 % of control and 97 % of control | [9] 107 % of control

COc1ccc2c3c(cccc13)-c1ccccc1C2=O
inactive: dose: 6.25 mg/kg/injection, schedule: Q01DX005 (ip), vehicle: saline with Tween-80 95 % of control | [17] 91 % of control | dose: 25.0 mg/kg/injection, schedule: Q01DX005 (ip), vehicle: saline with Tween-80 93 % of control

C=CCOC(=O)C12CCC(C)(C)CC1C1=CCC3C4(C)CCC(O)C(C)(CO)C4CCC3(C)C1(C)CC2 (stereo unspecified)
inactive: dose: 3.0 mg/kg/injection, schedule: Q01DX005 (ip), vehicle: saline with Tween-80 111 % of control | dose: 6.0 mg/kg/injection, schedule: Q01DX005 (ip), vehicle: saline with Tween-80 114 % of control | dose: 12.0 mg/kg/injection, schedule: Q01DX005 (ip), vehicle: saline with Tween-80 100 % of control | [17] 92 % of control

COC1(OC)C2C(Br)=C(Br)C1C1CCC/C=C\CC12 (stereo unspecified)
inactive: dose: 100.0 mg/kg/injection, schedule: Q04DX002 (ip), vehicle: saline with Tween-80 103 % of control | dose: 200.0 mg/kg/injection, schedule: Q04DX002 (ip), vehicle: saline with Tween-80 103 % of control | dose: 400.0 mg/kg/injection, schedule: Q04DX002 (ip), vehicle: saline with Tween-80 109 % of control

CCOC(=O)/C(C#N)=C(\C)c1ccccc1
inactive: [11] 99 % of control

c1ccc(N=C2N=c3ccccc3=C2c2c(Nc3ccccc3)[nH]c3ccccc23)cc1
inactive: [5] 89 % of control | [6] 90 % of control | [18] 92 % of control

CCN(CCC(=O)OC)Cc1ccnc2ccccc12
inactive: dose: 50.0 mg/kg/injection, schedule: Q01DX005 (ip), vehicle: saline 103 % of control | dose: 100.0 mg/kg/injection, schedule: Q01DX005 (ip), vehicle: saline 113 % of control | dose: 200.0 mg/kg/injection, schedule: Q01DX005 (ip), vehicle: saline 106 % of control

CCOC(=O)c1n[nH]c(C)c1C/C(=N/O)c1ccccc1
inactive: [5] 103 % of control | [6] 92 % of control | [18] 92 % of control

O=C(CNC(=O)Nc1ccc(NC(=O)NCC(=O)Nc2ccc(C3=NCCN3)cc2)cc1)Nc1ccc(C2=NCCN2)cc1
inactive: [7] 105 % of control and 106 % of control | [8] 93 % of control | [9] 111 % of control and 97 % of control

COC(=O)[C@@]12OC[C@]34[C@H]([C@@H](O)[C@@H]1O)[C@@]1(C)CC(=O)C(OC(=O)CC(=O)OC5=C(C)[C@@H]6C[C@H]7OC(=O)[C@H](OC(=O)C=C(C)C)[C@H]8[C@]9(C(=O)OC)OC[C@]78[C@H]([C@@H](O)[C@@H]9O)[C@@]6(C)CC5=O)=C(C)[C@@H]1C[C@H]3OC(=O)[C@H](OC(=O)C=C(C)C)[C@@H]24
inactive: dose: 0.3 mg/kg/injection, schedule: Q01DX009 (ip), vehicle: saline with Tween-80 106 % of control | dose: 0.6 mg/kg/injection, schedule: Q01DX009 (ip), vehicle: saline with Tween-80 107 % of control | dose: 0.9 mg/kg/injection, schedule: Q01DX009 (ip), vehicle: saline with Tween-80 113 % of control

COc1ccc2c(c1OC(C)=O)-c1cc(O)cc3c1C(C2)N(C(=O)CN(CCCl)CCCl)CC3 (stereo unspecified)
active: dose: 12.5 mg/kg/injection, schedule: Q04DX003 (ip), vehicle: DMSO 174 % of control | dose: 25.0 mg/kg/injection, schedule: Q04DX003 (ip), vehicle: DMSO 168 % of control | dose: 25.0 mg/kg/injection, schedule: Q04DX003 (ip), vehicle: distilled water + Tween-80 154 % of control | dose: 50.0 mg/kg/injection, schedule: Q04DX003 (ip), vehicle: DMSO 169 % of control
inactive: dose: 3.13 mg/kg/injection, schedule: Q04DX003 (ip), vehicle: DMSO 116 % of control | dose: 6.25 mg/kg/injection, schedule: Q04DX003 (ip), vehicle: DMSO 123 % of control | dose: 50.0 mg/kg/injection, schedule: Q04DX003 (ip), vehicle: saline 87 % of control

COc1ccc(C2CC(CO)ON2c2ccccc2)cc1 (stereo unspecified)
inactive: dose: 60.0 mg/kg/injection, schedule: Q01DX005 (ip), vehicle: saline with Tween-80 98 % of control | dose: 120.0 mg/kg/injection, schedule: Q01DX005 (ip), vehicle: saline with Tween-80 98 % of control | dose: 240.0 mg/kg/injection, schedule: Q01DX005 (ip), vehicle: saline with Tween-80 99 % of control

O=C(CC(=O)C(F)(F)C(F)(F)C(F)(F)F)c1csc2ccccc12
inactive: [16] 109 % of control

NC(CCN[N+](=O)[O-])C(=O)O (stereo unspecified)
inactive: [1] 103 % of control | [2] 97 % of control | [3] 96 % of control | [4] 97 % of control
